Measurements reported in ChEMBL document CHEMBL3045527, “Herbicides for control of isoproturon-resistant Littleseed Canarygrass (Phalaris minor) in wheat” (2008).

Experiments:
Type in all cases: functional
[1] = system: Melilotus albus; assay: Herbicidal activity against Melilotus albus infested wheat field assessed as weed dry weight at 60 g/ha applied at 32 to 35 days after sowing through sprayer measured 100 days after sowing (reference value: 313.7 g/m2)
[2] = system: Lepidium didymum; assay: Herbicidal activity against Lepidium didymum infested wheat field assessed as weed dry weight at 60 g/ha applied at 32 to 35 days after sowing through sprayer measured 100 days after sowing (reference value: 313.7 g/m2)
[3] = system: Phalaris minor; assay: Herbicidal activity against isoproturon-resistant Phalaris minor infested wheat field assessed as weed dry weight at 60 g/ha applied at 35 days after sowing through sprayer measured 95 days after sowing (reference value: 213.0 g/m2)
[4] = system: Phalaris minor; assay: Herbicidal activity against isoproturon-resistant Phalaris minor infested wheat field assessed as wheat yield at 60 g/ha applied at 35 days after sowing through sprayer measured 95 days after sowing (reference value: 3.05 t/ha)
[5] = system: Phalaris minor; assay: Herbicidal activity against isoproturon-resistant Phalaris minor infested wheat field assessed as wheat yield at 60 g/ha applied at 32 to 35 days after sowing through sprayer (reference value: 3.41 t/ha)
[6] = system: Medicago polymorpha; assay: Herbicidal activity against Medicago polymorpha infested wheat field assessed as weed dry weight at 60 g/ha applied at 32 to 35 days after sowing through sprayer measured 100 days after sowing (reference value: 313.7 g/m2)
[7] = system: Phalaris minor; assay: Herbicidal activity against isoproturon-resistant Phalaris minor infested wheat field assessed as weed dry weight at 60 g/ha applied at 32 to 35 days after sowing through sprayer measured 100 days after sowing (reference value: 313.7 g/m2)
[8] = system: Lepidium didymum; assay: Herbicidal activity against Lepidium didymum infested wheat field assessed as weed dry weight at 120 g/ha applied at 32 to 35 days after sowing through sprayer measured 100 days after sowing (reference value: 313.7 g/m2)
[9] = system: Melilotus albus; assay: Herbicidal activity against Melilotus albus infested wheat field assessed as weed dry weight at 120 g/ha applied at 32 to 35 days after sowing through sprayer measured 100 days after sowing (reference value: 313.7 g/m2)
[10] = system: Phalaris minor; assay: Herbicidal activity against isoproturon-resistant Phalaris minor infested wheat field assessed as wheat yield at 120 g/ha applied at 32 to 35 days after sowing through sprayer (reference value: 3.41 t/ha)
[11] = system: Phalaris minor; assay: Herbicidal activity against isoproturon-resistant Phalaris minor infested wheat field assessed as weed dry weight at 120 g/ha applied at 32 to 35 days after sowing through sprayer measured 100 days after sowing (reference value: 313.7 g/m2)
[12] = system: Medicago polymorpha; assay: Herbicidal activity against Medicago polymorpha infested wheat field assessed as weed dry weight at 120 g/ha applied at 32 to 35 days after sowing through sprayer measured 100 days after sowing (reference value: 313.7 g/m2)
[13] = system: Phalaris minor; assay: Post-emergence herbicidal activity against isoproturon-resistant Phalaris minor infested wheat field assessed as reduction in weed dry weight at 1000 g/ha applied on 1 after sowing through sprayer measured 120 days after sowing relative to control; parameters: scale not given: the % may be the effect or the level left
[14] = system: Phalaris minor; assay: Herbicidal activity against isoproturon-resistant Phalaris minor infested wheat field assessed as wheat yield at 1000 g/ha applied at 35 days after sowing through sprayer measured 95 days after sowing (reference value: 3.05 t/ha)
[15] = system: Medicago polymorpha; assay: Herbicidal activity against Medicago polymorpha infested wheat field assessed as weed dry weight at 1000 g/ha applied at 32 to 35 days after sowing through sprayer measured 100 days after sowing (reference value: 313.7 g/m2)
[16] = system: Phalaris minor; assay: Herbicidal activity against isoproturon-resistant Phalaris minor infested wheat field assessed as weed dry weight at 1000 g/ha applied at 32 to 35 days after sowing through sprayer measured 100 days after sowing (reference value: 313.7 g/m2)
[17] = system: Phalaris minor; assay: Herbicidal activity against isoproturon-resistant Phalaris minor infested wheat field assessed as weed dry weight at 1000 g/ha applied at 35 days after sowing through sprayer measured 95 days after sowing (reference value: 213.0 g/m2)
[18] = system: Phalaris minor; assay: Herbicidal activity against isoproturon-resistant Phalaris minor infested wheat field assessed as wheat yield at 1000 g/ha applied at 32 to 35 days after sowing through sprayer (reference value: 3.41 t/ha)
[19] = system: Melilotus albus; assay: Herbicidal activity against Melilotus albus infested wheat field assessed as weed dry weight at 1000 g/ha applied at 32 to 35 days after sowing through sprayer measured 100 days after sowing (reference value: 313.7 g/m2)
[20] = system: Lepidium didymum; assay: Herbicidal activity against Lepidium didymum infested wheat field assessed as weed dry weight at 1000 g/ha applied at 32 to 35 days after sowing through sprayer measured 100 days after sowing (reference value: 313.7 g/m2)
[21] = system: Phalaris minor; assay: Post-emergence herbicidal activity against isoproturon-resistant Phalaris minor infested wheat field assessed as reduction in weed dry weight at 280 g/ha applied on 1 after sowing through sprayer measured 120 days after sowing relative to control; parameters: scale not given: the % may be the effect or the level left
[22] = system: Phalaris minor; assay: Pre-emergence herbicidal activity against isoproturon-resistant Phalaris minor infested wheat field assessed as reduction in weed dry weight at 1250 g/ha applied on 1 after sowing through sprayer measured 120 days after sowing relative to control; parameters: scale not given: the % may be the effect or the level left
[23] = system: Phalaris minor; assay: Herbicidal activity against isoproturon-resistant Phalaris minor infested wheat field assessed as weed dry weight at 30 g/ha applied at 35 days after sowing through sprayer in presence of 0.5 % surfactant A 12127 measured 95 days after sowing (reference value: 213.0 g/m2)
[24] = system: Phalaris minor; assay: Herbicidal activity against isoproturon-resistant Phalaris minor infested wheat field assessed as wheat yield at 35 g/ha applied at 35 days after sowing through sprayer in presence of 0.5 % surfactant A 12127 measured 95 days after sowing (reference value: 3.05 t/ha)
[25] = system: Phalaris minor; assay: Herbicidal activity against isoproturon-resistant Phalaris minor infested wheat field assessed as wheat yield at 30 g/ha applied at 35 days after sowing through sprayer in presence of 0.5 % surfactant A 12127 measured 95 days after sowing (reference value: 3.05 t/ha)
[26] = system: Phalaris minor; assay: Herbicidal activity against isoproturon-resistant Phalaris minor infested wheat field assessed as weed dry weight at 35 g/ha applied at 35 days after sowing through sprayer in presence of 0.5 % surfactant A 12127 measured 95 days after sowing (reference value: 213.0 g/m2)
[27] = system: Phalaris minor; assay: Herbicidal activity against isoproturon-resistant Phalaris minor infested wheat field assessed as weed dry weight at 120 g/ha applied at 32 to 35 days after sowing through sprayer in presence of surfactant MON 0818 measured 100 days after sowing (reference value: 313.7 g/m2)
[28] = system: Melilotus albus; assay: Herbicidal activity against Melilotus albus infested wheat field assessed as weed dry weight at 120 g/ha applied at 32 to 35 days after sowing through sprayer in presence of surfactant MON 0818 measured 100 days after sowing (reference value: 313.7 g/m2)
[29] = system: Phalaris minor; assay: Post-emergence herbicidal activity against isoproturon-resistant Phalaris minor infested wheat field assessed as reduction in weed dry weight at 25 g/ha applied on 1 after sowing through sprayer measured 120 days after sowing relative to control; parameters: scale not given: the % may be the effect or the level left
[30] = system: Medicago polymorpha; assay: Herbicidal activity against Medicago polymorpha infested wheat field assessed as weed dry weight at 120 g/ha applied at 32 to 35 days after sowing through sprayer in presence of surfactant MON 0818 measured 100 days after sowing (reference value: 313.7 g/m2)
[31] = system: Phalaris minor; assay: Herbicidal activity against isoproturon-resistant Phalaris minor infested wheat field assessed as wheat yield at 120 g/ha applied at 32 to 35 days after sowing through sprayer in presence of surfactant MON 0818 (reference value: 3.41 t/ha)
[32] = system: Lepidium didymum; assay: Herbicidal activity against Lepidium didymum infested wheat field assessed as weed dry weight at 120 g/ha applied at 32 to 35 days after sowing through sprayer in presence of surfactant MON 0818 measured 100 days after sowing (reference value: 313.7 g/m2)

C[C@@H](Oc1ccc(Oc2ncc(Cl)cc2F)cc1)C(=O)O [CLODINAFOP]
Activity [1]: 38.3 g/m2 | Activity [2]: 38.3 g/m2 | Activity [3]: 0.6 g/m2 | Crop_yield [4]: 5.42 tons/ha | Crop_yield [5]: 6.01 tons/ha | Activity [6]: 38.3 g/m2 | Activity [7]: 0.6 g/m2

C[C@@H](Oc1ccc(Oc2nc3ccc(Cl)cc3o2)cc1)C(=O)O [FENOXAPROP-P]
Activity [8]: 25.2 g/m2 | Activity [9]: 25.2 g/m2 | Crop_yield [10]: 5.96 tons/ha | Activity [11]: 5.9 g/m2 | Activity [12]: 25.2 g/m2

CC(C)c1ccc(NC(=O)N(C)C)cc1 [ISOPROTURON]
Activity [13]: 26.2% | Crop_yield [14]: 3.61 tons/ha | Activity [15]: 3 g/m2 | Activity [16]: 242 g/m2 | Activity [17]: 179.2 g/m2 | Crop_yield [18]: 3.99 tons/ha | Activity [19]: 3 g/m2 | Activity [20]: 3 g/m2

CSc1nnc(C(C)(C)C)c(=O)n1N [METRIBUZIN]
Activity [21]: 94.7%

CCC(CC)Nc1c([N+](=O)[O-])cc(C)c(C)c1[N+](=O)[O-] [PENDIMETHALIN]
Activity [22]: 88.5%

CCc1cc(C)cc(CC)c1-c1c(OC(=O)C(C)(C)C)n2n(c1=O)CCOCC2 [PINOXADEN]
Activity [23]: 2.3 g/m2 | Crop_yield [24]: 5.38 tons/ha | Crop_yield [25]: 5.44 tons/ha | Activity [26]: 0.3 g/m2

CCS(=O)(=O)c1nc2ccccn2c1S(=O)(=O)NC(=O)Nc1nc(OC)cc(OC)n1 [SULFOSULFURON]
Activity [27]: 0.3 g/m2 | Activity [28]: 1.8 g/m2 | Activity [29]: 93.8% | Activity [30]: 1.8 g/m2 | Crop_yield [31]: 6.2 tons/ha | Activity [32]: 1.8 g/m2
